Test results from patent publication US20060052447A1, “Novel substituted arylhexadienoic acids and esters thereof which can be used for the treatment and prevention of diabetes, dyslipidaemia and atherosclerosis, pharmaceutical compositios comprising them and processes for the preparation of them” (Merck Patent GmbH, priority 2002, published 2006).

Experiments:
Assay type in all cases: cell-based
[1] = molecular target: T1, chimeric protein PPARγ-Gal4 (Homo sapiens, UniProt P37231); assay: PPAR activation, Gal4 chimera luciferase reporter in co-transfected CV-1 cells; settings: 50 μM; CV-1 cells (monkey kidney cells); 18 hours contact; relative to control cells without product
T1 construct: expressed in transfected cells; host or cells: CV-1 cells (monkey kidney cells)
T1 sequence (P37231 238-503 limits assumed): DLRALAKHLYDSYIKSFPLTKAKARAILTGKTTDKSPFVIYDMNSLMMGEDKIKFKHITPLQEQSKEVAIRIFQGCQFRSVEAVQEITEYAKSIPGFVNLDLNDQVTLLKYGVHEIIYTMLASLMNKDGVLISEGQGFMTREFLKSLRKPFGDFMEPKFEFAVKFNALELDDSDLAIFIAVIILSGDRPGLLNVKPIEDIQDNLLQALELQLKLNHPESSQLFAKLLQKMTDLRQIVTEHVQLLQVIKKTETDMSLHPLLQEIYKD
Description: (§1) The measurement of the PPAR activation was performed according to a technique described by Lehmann et al. (1995, J. Biol. Chem. 270: 12953-12956).
(§2) CV-1 cells (monkey kidney cells) are co-transfected with an expression vector for the chimeric proteins PPARα-Gal4 or PPARγ-Gal4 and with a “reporter” plasmid that allows the expression of the luciferase gene placed under the control of a promoter containing Gal4 response elements.
(§3) The cells are inoculated in 96-well microplates and co-transfected using a commercial reagent with the reporter plasmid (pG5-tk-pGL3) and the expression vector for the chimeric protein (PPARα-Gal4 or PPARγ-Gal4). After incubating for 4 hours, whole culture medium (comprising 10% foetal calf serum) is added to the wells. After 24 hours, the medium is removed and replaced by whole medium comprising the test products (50 μM final).
(§4) The products are left in contact with the cells for 18 hours. The cells are then lysed and the luciferase activity is measured using a luminometer. A PPAR activation factor can then be calculated by means of the activation of the expression of the reporter gene induced by the product (relative to the control cells that have not received any product).

[2] = molecular target: T2, chimeric protein PPARα-Gal4 (Homo sapiens, UniProt Q07869); assay: as above; settings: 50 μM; CV-1 cells (monkey kidney cells); 18 hours contact; relative to control cells without product
T2 construct: expressed in transfected cells; host or cells: CV-1 cells (monkey kidney cells)
T2 sequence (Q07869 239-466 limits assumed): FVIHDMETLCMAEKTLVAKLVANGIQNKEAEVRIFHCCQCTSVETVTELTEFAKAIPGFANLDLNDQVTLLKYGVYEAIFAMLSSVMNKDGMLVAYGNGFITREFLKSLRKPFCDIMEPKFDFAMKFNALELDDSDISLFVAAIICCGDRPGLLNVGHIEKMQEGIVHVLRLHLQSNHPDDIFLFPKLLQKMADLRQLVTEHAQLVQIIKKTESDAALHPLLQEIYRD
Description: as §1, §2, §3, §4

[3] = molecular target: T3, vector expressing Gal4 alone (Saccharomyces cerevisiae, UniProt P04386); assay: Luciferase reporter control without PPAR ligand binding region in CV-1 cells; settings: absence of the binding region for the PPAR α or γ ligand (Gal4 alone)
T3 construct: expressed in transfected cells; host or cells: CV-1 cells (monkey kidney cells)
Source text: CV-1 cells (monkey kidney cells) are co-transfected with an expression vector for the chimeric proteins PPARα-Gal4 or PPARγ-Gal4 and with a “reporter” plasmid that allows the expression of the luciferase gene placed under the control of a promoter containing Gal4 response elements. The cells are inoculated in 96-well microplates and co-transfected using a commercial reagent with the reporter plasmid (pG5-tk-pGL3) and the expression vector for the chimeric protein (PPARα-Gal4 or PPARγ-Gal4). After incubating for 4 hours, whole culture medium (comprising 10% foetal calf serum) is added to the wells. After 24 hours, the medium is removed and replaced by whole medium comprising the test products (50 μM final). The products are left in contact with the cells for 18 hours. The cells are then lysed and the luciferase activity is measured using a luminometer. A PPAR activation factor can then be calculated by means of the activation of the expression of the reporter gene induced by the product (relative to the control cells that have not received any product). […] In the absence of the binding region for the PPAR α or γ ligand (vector expressing Gal4 alone), the luciferase activity measured in the presence of this product is zero.

T3 sequence (P04386 1-147 limits assumed): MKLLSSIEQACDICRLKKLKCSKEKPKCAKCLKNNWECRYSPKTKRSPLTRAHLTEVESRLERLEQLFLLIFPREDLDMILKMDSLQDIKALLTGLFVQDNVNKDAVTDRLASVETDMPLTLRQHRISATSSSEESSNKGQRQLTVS

CCCC(C=CC(=O)c1cc(OC)ccc1OC)=CC(=O)OCC [Example 12, ethyl 6-(2,5-dimethoxyphenyl)-6-oxo-3-propylhexa-2,4-dienoate]
PPAR activation factor (activation of expression of the luciferase reporter gene) [1]: five
PPAR activation factor (activation of expression of the luciferase reporter gene) [2]: seven
luciferase activity measured in the presence of the product [3]: zero
